One compound from patent US20250041209A1, “THERMOSENSITIVE MODIFIED CHITIN SPONGE DRUG-LOADED IMPLANTED SUSTAINED-RELEASE SYSTEM, PREPARATION METHOD THEREFORE, AND USE THEREOF” (priority 2022, published 2025) can be followed below.

Structures can show the parent of a compound that is named as a salt.

The test concerns cutaneous trunci muscle reflex. The test can be described thus: guinea pig pin-prick assay, local anesthetic efficacy of subcutaneously implanted sponges. It counts as in vivo. The note with it: subcutaneous implant (sponge about 0.5 g) or 0.5 mL solution injected, n=6. The source says:
To evaluate in vivo the local anesthetic efficacy of the drug-loaded implanted thermosensitive hydroxypropyl chitin sponges prepared in Example 1, guinea pig pin-prick assay was employed in this invention. Guinea pigs (around 300 g) were induced and maintained with isoflurane. Then the left backs of guinea pigs were shaved before treatment. One longitudinal skin incision with 1.5 cm in length was made by a scalpel at 2 cm left of ridge midline on the back of the guinea pig. Subsequently, one cuboid sponge about 0.5 g (1 cm×1 cm×0.5 cm) was put right in the middle of the incision below the skin. The incision was finally stitched up. 36 animals were randomly divided into six experimental groups with each of 6: group 1: BPV-loaded 0.8B %-HPCH (3.6 wt %) sponge, group 2: 0.8B %-collagen/HPCH (0.6/3.0 wt %) sponge, group 3: 1.2B %-HPCH (3.6 wt %) sponge, group 4: 2.4B %-HPCH (3.6 wt %) sponge, 0.8%-BPV group 5 (0.8 wt % BPV solution) and sham-operated group 6. As for sham-operated group, the incision was made and stitched up without placing a sponge. For BPV solution group, a volume of 0.5 mL 0.8% BPV solution was injected subcutaneously near the skin incision using 30-gage hypodermic needle. […] The nociceptive blockade score (N %) was calculated as following equation: N %=n/8×100%. […]

Turning to `CCCCN1CCCCC1C(=O)Nc1c(C)cccc1C` (stereo not shown) [0.8%-BPV, bupivacaine hydrochloride], the “effective duration of blockade (time with nociceptive blockade score≥50%)” value amounted to 1 h.
